The subject of one data set is bladder strips. Briefly: Effects on the bladder muscle in vitro (relaxant effect on bladder strips). Also on record: species or system guinea pigs. The note with it: Cavia porcellus; guinea pig bladder strips; contractions triggered by electrical stimulation or KCl depolarization; read-out: A IC50 (concentration which reduces contraction of bladder strips by 50%). How it is done:
Effects on the bladder muscle in vitro
In these experiments, the IC50 value denotes the concentration of a substance which reduces contraction by 50%.
Male albino guinea pigs weighing about 400 g are killed painlessly by a blow to the neck and quickly exsanguinated. The abdominal cavity is opened and the bladder is carefully resectioned. It is placed in a Petri dish filled with Krebs solution, and surrounding connective and fatty tissue is removed. Two horizontal strips of tissue are prepared. With the aid of two threads which are attached to both ends of the strips of tissue, the strips are suspended in an organ bath. They are fastened at the bottom to a hook and at the top to an electric force transducer which is able to measure precisely contractions of 0-10 g in strength. The measured contractions are amplified by means of a bridge amplifier and are recorded with a thermal plotter. The signals obtained can also be integrated electronically on another plotter channel in order to quantify in-phase contractions.
(§1) The organ baths are filled with Krebs solution at 37° C. through which an O2 /CO2 mixture is bubbled thoroughly and which has the following composition (mmol/1): NaCl 118.4; KCl 4.7; CaCl2 2.5; KH2 PO4 1.2; MgSO4 1.2; NaHCO3 25; glucose 11.
The strips are stretched with a basic tone of about 0.5 g. After an equilibration time of about 30 minutes, one of the two strips is stimulated electrically every minute using built-in electrodes (period of stimulation 2 seconds, 30 Hz, 0.5 ms pulse width, 10 volts) in order to trigger short-term contractions. The other strip is made to exert in-phase contraction by depolarization (addition of […] KCl to the organ bath). Both the contractions triggered by electrical stimulation and those initiated by depolarization and occurring in the strips of bladder muscle quickly reach a plateau. As soon as this plateau is reached ("100% value"), the test substance is added to the organ bath, initially at 10w concentrations, for example 10^-8 M, and then in increasing doses at regular intervals, until the contractions reduce or the final concentration of 10^-4 M is reached. Each test substance is tested 2-4 times in this way.
For purposes of evaluation, the height of the contractions registered on the plotter paper is measured for each experiment after the action of each test concentration added. The IC50 value can be calculated in this way in relation to the original height of contractions before the addition of substance (100%). All of the IC50 values are shown in column A of Table 1.

Data set [1] has as its system arterial blood pressure, conscious rat. Briefly: Effects on blood pressure in vivo, conscious rat. On the set-up: species or system Sprague-Dawley rats. The method, then:
Effects on blood pressure in vivo
The rats were fasted overnight before the day of the experiment.
On the day of experiment, the rats were brought into the laboratory and their blood pressure and heart rate was recorded over about 30 minutes. The test substances, suspended in 0.5% methylcellulose, were then administered perorally via a stomach tube (volume: 3 ml/kg of body weight) and blood pressure and heart rate were measured over the next 6 hours. The percentage changes in the measured values in relation to the initial values were calculated and were determined for groups of 3-4 similarly treated animals.

Another data set has as its system rings of aorta. Nature of the data set: Effects on vessel muscle in vitro (aorta rings, KCl depolarization). On the set-up: species or system rats. The note with it: rat aorta rings contracted with 25 mM KCl; read-out: B IC50 (rings of aorta). How it is done: Effects on vessel muscle in vitro
Male rats weighing about 300 g are killed painlessly by a blow to the neck and quickly exsanguinated. The thoracic cavity is opened and the aorta is carefully resectioned. It is placed in a Petri dish filled with Krebs solution, and surrounding connective and fatty tissue is removed. Two rings are prepared. The rings are each suspended in an organ bath. They are attached at the bottom to a hook and at the top to an electrical force transducer which is able to measure precisely contractions of 0-10 grams in strength. The measured contractions are amplified by means of a bridge amplifier and recorded with a thermal plotter.
as §1
The rings are stretched with a basic tone of about 0.5 g. After an equilibration time of about 30 minutes, the rings are caused to undergo contraction by depolarization (addition of 25 mM KCl to the organ bath). The contractions of the rings of aorta, triggered by the depolarization, quickly reach a plateau. As soon as this plateau is reached ("100% value"), the test substance is added to the organ bath, initially at low concentrations, for example 10^-8 M, and then in increasing doses at regular intervals, until the contractions reduce or the final concentration of 10^-4 M is reached. Each test substance is tested 2-4 times in this way.
For purposes of evaluation, the height of the contractions registered on the plotter paper is measured for each experiment after the action of each test concentration added. The IC50 value can be calculated in this way in relation to the original height of contractions before the addition of substance (100%). IC50 values are shown in column B of Table 1.

Consider `CC(O)(C(=O)Nc1nnc(C(=O)c2ccccc2)s1)C(F)(F)F` (stereo not shown) [Example 3, N-[5-(Phenylcarbonyl)-1,3,4-thiadiazol-2-yl]-3,3,3-trifluoro-2-hydroxy-2-methylpropanamide], for which the IC50 was 50 µM with bladder strips and 10000 nM in the data set with rings of aorta. In addition, the “Reduction in diastolic pressure, % of initial value” (“Reduction in diastolic pressure, %” below) in data set [1] (6 mg/kg peroral, 30 min) was 3 % of initial value; in data set [1] (6 mg/kg peroral, 60 min) it was 2 % of initial value; in data set [1] (6 mg/kg peroral, 120 min) it was 4 % of initial value.

As for `CC(O)(C(=O)Nc1ccc(C(=O)c2ccccc2)s1)C(F)(F)F` (stereo not shown) [Example 1, N-[5-(Phenylcarbonyl)thien-2-yl]-3,3,3-tri-fluoro-2-hydroxy-2-methylpropanamide], the IC50 in the data set on bladder strips was found to be 100 µM; in the data set on rings of aorta, 2500 nM. The “Reduction in diastolic pressure, %” value in data set [1] (6 mg/kg peroral, 30 min) is 3 % of initial value; in data set [1] (6 mg/kg peroral, 60 min), 2 % of initial value; in data set [1] (6 mg/kg peroral, 120 min), 4 % of initial value.

As for `CC1(C)Oc2ccc(C#N)cc2C(N2CCCC2=O)C1O` (stereo not shown) [V, cromakalim, reference compound], the IC50 with bladder strips came out at 1 µM; with rings of aorta, 65 nM. Moreover, the “Reduction in diastolic pressure, %” value in data set [1] (1 mg/kg peroral, 15 min) is 53 % of initial value; in data set [1] (1 mg/kg peroral, 30 min), 49 % of initial value; in data set [1] (1 mg/kg peroral, 60 min), 40 % of initial value; in data set [1] (1 mg/kg peroral, 120 min), 26 % of initial value.

Turning to `CC(O)(C(=O)Nc1ccc(S(=O)(=O)c2ccccc2)s1)C(F)(F)F` (stereo not shown) [Example 4, N-[5-(Phenylsulfonyl)thien-2-yl]-3,3,3-trifluoro-2-hydroxy-2-methylpropanamide], the IC50 in the data set with bladder strips is 1.7 µM; in the data set with rings of aorta, 1200 nM. Further, the “Reduction in diastolic pressure, %” value is given as 1 % of initial value in data set [1] (6 mg/kg peroral, 15 min); 5 % of initial value in data set [1] (6 mg/kg peroral, 30 min); 4 % of initial value in data set [1] (6 mg/kg peroral, 60 min); 6 % of initial value in data set [1] (6 mg/kg peroral, 120 min); 0 % of initial value in data set [1] (18 mg/kg peroral, 15 min); 8 % of initial value in data set [1] (18 mg/kg peroral, 30 min). In addition, the “Reduction in diastolic pressure, %” value in data set [1] (18 mg/kg peroral, 60 min) is given as 10 % of initial value; in data set [1] (18 mg/kg peroral, 120 min) it was 15 % of initial value.

On to `CC(O)(C(=O)Nc1ncc(C(=O)c2ccccc2)s1)C(F)(F)F` (stereo not shown) [Example 2, N-[5-(Phenylcarbonyl)thiazol-2-yl]-3,3,3-trifluoro-2-hydroxy-2-methylpropanamide], for which the IC50 in the data set with bladder strips was 100 µM; with rings of aorta it was 20000 nM. Also, the “Reduction in diastolic pressure, %” value in data set [1] (6 mg/kg peroral, 15 min) was 2 % of initial value; in data set [1] (6 mg/kg peroral, 30 min), 8 % of initial value; in data set [1] (6 mg/kg peroral, 60 min), 5 % of initial value.
